Here are results for 19 compounds from ChEMBL document CHEMBL1129317, “Novel selective and partial agonists of 5-HT3 receptors. Part 1. Synthesis and biological evaluation of piperazinopyrrolothienopyrazines” (J Med Chem, 1996).

Experiment [1] concerns the target T1, 5-hydroxytryptamine receptor 1A (Homo sapiens, UniProt P08908).
T1 sequence (P08908 whole entry): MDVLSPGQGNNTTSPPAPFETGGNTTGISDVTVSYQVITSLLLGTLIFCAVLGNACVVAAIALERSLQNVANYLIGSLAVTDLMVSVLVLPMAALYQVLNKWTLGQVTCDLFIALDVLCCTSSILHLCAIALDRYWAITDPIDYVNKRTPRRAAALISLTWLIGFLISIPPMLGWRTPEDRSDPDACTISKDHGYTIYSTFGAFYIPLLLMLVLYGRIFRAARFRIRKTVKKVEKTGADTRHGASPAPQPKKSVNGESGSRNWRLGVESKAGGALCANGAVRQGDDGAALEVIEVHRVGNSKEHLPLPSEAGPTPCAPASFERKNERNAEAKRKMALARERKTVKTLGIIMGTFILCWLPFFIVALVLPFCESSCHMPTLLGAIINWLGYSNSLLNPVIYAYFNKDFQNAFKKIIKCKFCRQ
Put plainly: Binding affinity for 5-hydroxytryptamine 1A receptor.

Experiment [2] deals with 5-hydroxytryptamine receptor 1D (Sus scrofa, UniProt P79400). Put plainly: Binding affinity for 5-hydroxytryptamine 1D receptor.
The target in experiment [3] is T2, Serotonin 3 (5-HT3) receptor (Rattus norvegicus) (UniProt P35563+Q9JJ16). Put plainly: Agonistic activity of compound towards 5-hydroxytryptamine 3 receptor in Von Bezold-Jarisch Reflex in rats at 60 (ug/kg), evaluated as change in heart rate. Type of experiment: functional.
Experiment [4] has as its target T2, Serotonin 3 (5-HT3) receptor (Rattus norvegicus). Put plainly: Antagonistic activity of compound towards 5-hydroxytryptamine 3 receptor in Von Bezold-Jarisch reflex in rats at 60(ug/kg), evaluated as percent inhibition of bradycardia. Type of experiment: functional.
Experiment [5] addresses T3, 5-hydroxytryptamine receptor 2C (Homo sapiens, UniProt P28335).
T3 sequence (P28335 whole entry): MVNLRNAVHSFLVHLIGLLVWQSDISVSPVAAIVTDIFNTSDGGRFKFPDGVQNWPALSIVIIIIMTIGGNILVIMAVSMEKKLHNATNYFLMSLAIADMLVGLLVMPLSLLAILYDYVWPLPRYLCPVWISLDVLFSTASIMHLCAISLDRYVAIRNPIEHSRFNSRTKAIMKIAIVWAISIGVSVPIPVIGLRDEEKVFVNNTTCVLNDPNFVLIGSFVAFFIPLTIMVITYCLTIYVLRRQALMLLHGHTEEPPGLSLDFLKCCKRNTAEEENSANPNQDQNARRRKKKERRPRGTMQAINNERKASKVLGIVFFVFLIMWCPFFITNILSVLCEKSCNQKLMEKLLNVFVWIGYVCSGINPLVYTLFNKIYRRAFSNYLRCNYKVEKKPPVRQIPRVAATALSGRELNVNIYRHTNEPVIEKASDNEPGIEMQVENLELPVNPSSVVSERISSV
Put plainly: Binding affinity towards 5-hydroxytryptamine 2C receptor.

Experiment [6] concerns the target T2, Serotonin 3 (5-HT3) receptor (Rattus norvegicus). Put plainly: 5-Hydroxy tryptamine 3 receptor showing agonist activity (in vivo) in Von Bezold-Jarisch Reflex in rats at 120 (ug/kg), evaluated as change in heart rate. Type of experiment: functional, organism-based.
Experiment [7] deals with T4, Serotonin 3 (5-HT3) receptor (Rattus norvegicus, UniProt P35563+Q9JJ16).
T4 sequence (P35563 whole entry): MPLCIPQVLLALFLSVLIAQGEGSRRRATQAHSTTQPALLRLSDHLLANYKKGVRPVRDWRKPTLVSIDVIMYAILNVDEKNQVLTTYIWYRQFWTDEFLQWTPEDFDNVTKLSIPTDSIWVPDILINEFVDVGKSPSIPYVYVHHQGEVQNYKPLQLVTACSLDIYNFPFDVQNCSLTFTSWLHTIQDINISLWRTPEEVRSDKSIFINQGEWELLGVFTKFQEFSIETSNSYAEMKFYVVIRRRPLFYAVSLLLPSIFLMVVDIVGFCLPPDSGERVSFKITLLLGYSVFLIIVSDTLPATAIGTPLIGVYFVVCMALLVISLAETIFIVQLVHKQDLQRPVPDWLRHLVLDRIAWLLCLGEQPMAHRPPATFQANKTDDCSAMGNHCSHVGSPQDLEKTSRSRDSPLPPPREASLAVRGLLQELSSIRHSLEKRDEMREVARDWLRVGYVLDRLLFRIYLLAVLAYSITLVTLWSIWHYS
T4 sequence (Q9JJ16 whole entry): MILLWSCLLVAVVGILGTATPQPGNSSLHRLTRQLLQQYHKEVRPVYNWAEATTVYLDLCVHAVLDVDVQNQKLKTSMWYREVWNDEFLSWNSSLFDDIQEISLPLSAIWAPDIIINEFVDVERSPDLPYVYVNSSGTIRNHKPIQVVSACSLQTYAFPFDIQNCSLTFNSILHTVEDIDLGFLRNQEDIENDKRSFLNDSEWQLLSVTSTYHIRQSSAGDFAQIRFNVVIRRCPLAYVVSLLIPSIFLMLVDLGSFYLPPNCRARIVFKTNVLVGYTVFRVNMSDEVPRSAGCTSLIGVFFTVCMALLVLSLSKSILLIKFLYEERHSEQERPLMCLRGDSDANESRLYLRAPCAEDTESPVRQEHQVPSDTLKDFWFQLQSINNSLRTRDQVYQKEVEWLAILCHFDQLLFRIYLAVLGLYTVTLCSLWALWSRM
Put plainly: Binding affinity towards 5-hydroxytryptamine 3 receptor. It counts as protein-complex assay.

In the next experiment the test system is NG108-15. Put plainly: In vitro effective concentration against [14C]guanidinium uptake into NG 108-15 cells. To be noted: Murinae. It counts as functional, cell-based.
In experiment [8] the target is 5-hydroxytryptamine receptor 1B (Rattus norvegicus, UniProt P28564). Put plainly: Binding affinity for 5-hydroxytryptamine 1B receptor.
Experiment [9] addresses 5-hydroxytryptamine receptor 2A (Bos taurus, UniProt Q75Z89). Put plainly: Binding affinity towards 5-hydroxytryptamine 2A receptor.
Experiment [10] has as its target T2, Serotonin 3 (5-HT3) receptor (Rattus norvegicus). Put plainly: Antagonistic activity of compound towards 5-hydroxytryptamine 3 receptor in Von Bezold-Jarisch Reflex in rats at 100(ug/kg), evaluated as percent inhibition of bradycardia. It counts as functional.
Experiment [11] shares this target. Put plainly: Agonistic activity of compound towards 5-hydroxytryptamine 3 receptor in Von Bezold-Jarisch Reflex in rats at 100 (ug/kg), evaluated as change in heart rate. Type of experiment: functional.
Experiment [12] has the same target. Put plainly: Antagonistic activity of compound towards 5-hydroxytryptamine 3 receptor in Von Bezold-Jarisch Reflex in rats at 60 (ug/kg), evaluated as percent inhibition of bradycardia. Type of experiment: functional.

SMILES strings stand for the structures.

5-hydroxytryptamine receptor 2A, sequence (Q75Z89 whole entry): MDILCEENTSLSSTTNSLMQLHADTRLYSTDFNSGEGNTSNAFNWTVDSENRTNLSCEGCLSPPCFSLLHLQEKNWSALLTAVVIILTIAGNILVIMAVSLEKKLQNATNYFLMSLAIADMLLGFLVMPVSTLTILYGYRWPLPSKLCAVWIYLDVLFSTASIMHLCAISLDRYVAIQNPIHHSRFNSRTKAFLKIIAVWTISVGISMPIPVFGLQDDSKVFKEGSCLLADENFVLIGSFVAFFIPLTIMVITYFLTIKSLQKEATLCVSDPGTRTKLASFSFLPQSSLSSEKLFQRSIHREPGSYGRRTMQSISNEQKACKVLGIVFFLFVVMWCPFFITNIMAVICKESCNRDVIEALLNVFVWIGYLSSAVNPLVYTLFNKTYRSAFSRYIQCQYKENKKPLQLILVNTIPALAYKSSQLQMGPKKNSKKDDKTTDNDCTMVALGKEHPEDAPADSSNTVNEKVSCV
5-hydroxytryptamine receptor 1D, sequence (P79400 whole entry): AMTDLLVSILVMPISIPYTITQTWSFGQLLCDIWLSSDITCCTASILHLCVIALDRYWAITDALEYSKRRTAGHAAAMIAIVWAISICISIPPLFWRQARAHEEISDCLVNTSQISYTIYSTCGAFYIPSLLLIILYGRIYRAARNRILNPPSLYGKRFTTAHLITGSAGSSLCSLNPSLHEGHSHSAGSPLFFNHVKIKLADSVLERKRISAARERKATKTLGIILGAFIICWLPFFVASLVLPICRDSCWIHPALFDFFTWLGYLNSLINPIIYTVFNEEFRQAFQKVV
5-hydroxytryptamine receptor 1B, sequence (P28564 whole entry): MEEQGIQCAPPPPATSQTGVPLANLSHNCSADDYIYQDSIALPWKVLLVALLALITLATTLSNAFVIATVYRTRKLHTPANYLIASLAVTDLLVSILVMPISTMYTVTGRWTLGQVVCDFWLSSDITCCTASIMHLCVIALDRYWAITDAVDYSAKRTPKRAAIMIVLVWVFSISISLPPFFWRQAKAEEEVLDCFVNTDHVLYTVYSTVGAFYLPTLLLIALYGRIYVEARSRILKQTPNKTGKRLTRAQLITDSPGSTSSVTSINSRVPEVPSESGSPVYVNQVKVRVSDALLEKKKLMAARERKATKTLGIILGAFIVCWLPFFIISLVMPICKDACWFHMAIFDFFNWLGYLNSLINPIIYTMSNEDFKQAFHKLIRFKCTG

In general, IC50 refers to the concentration at which inhibition is half-maximal. A lower IC50 goes with greater potency. Usually EC50 stands for the midpoint of the concentration-response curve. A high value points to weaker potency. For the compound `c1cc2c(N3CCNCC3)nc3ccsc3n2c1`, the IC50 in experiment [1] was 0.0589 µM; in [2] it was 0.603 µM; in [5], 0.0347 µM; in [7], 0.012 µM; in [8] it was 0.0138 µM; in [9] it was 2.63 µM. Also, the Change was 35% in experiment [3], 68% in experiment [4] and 0% in experiment [6]. For the same compound, a half-maximal effect in the experiment with NG108-15 (EC50) was put at 0.08 µM.
As for `c1ccc(CN2CCN(c3nc4sccc4n4cccc34)CC2)cc1`, the half-maximal inhibitory concentration (IC50) in [1] was 5.89 µM; in experiment [2], 93.3 µM; in experiment [5], 3.72 µM; in experiment [7], 0.00457 µM; in [8] it was 91.2 µM; in experiment [9] it was 19.5 µM. Further, the Change in [10] was determined as 67%; in [11] it was 48%. Besides, it took 0.03 µM to reach a half-maximal effect in the experiment on NG108-15 (EC50).
Consider `Fc1ccc(CN2CCN(c3nc4sccc4n4cccc34)CC2)cc1`, for which the IC50 in experiment [1] is 14.5 µM; in experiment [2] it was over 100 µM; in experiment [7], 0.00117 µM; in [8], 1580 µM; in experiment [9] it was 38 µM. Besides, the values for the Change in [3], in experiment [12] and in experiment [11] were 0%, 34% and 25%, respectively. Further, the EC50 in the experiment on NG108-15 was found to be 0.005 µM.
On to `CN1CCN(c2nc3ccsc3n3cccc23)CC1`, for which the IC50 was 0.117 µM in experiment [1]; 0.398 µM in experiment [2]; 0.24 µM in experiment [5]; 0.813 µM in experiment [7]; 11.2 µM in experiment [8]; 1.29 µM in experiment [9].
As for `C(=C\c1ccccc1)/CN1CCN(c2nc3ccsc3n3cccc23)CC1`, the IC50 in [1] was 0.0832 µM; in experiment [2], 105 µM; in experiment [5], 0.708 µM; in [7], 0.2 µM; in [8], 0.646 µM; in experiment [9], 0.851 µM.
Turning to `Clc1ccc(N2CCN(c3nc4ccsc4n4cccc34)CC2)cc1`, the IC50 is over 100 µM in experiment [1]; over 100 µM in experiment [2]; 102 µM in [5]; 245 µM in [7]; 302 µM in experiment [8]; 372 µM in experiment [9].
Consider `Fc1ccc(CN2CCN(c3nc4ccsc4n4cccc34)CC2)cc1`, for which the concentration for half-maximal inhibition (IC50) is 0.347 µM in [1]; 138 µM in experiment [2]; 7.41 µM in experiment [5]; 0.0214 µM in experiment [7]; 14.5 µM in [8]; 22.4 µM in experiment [9].
In the case of `Clc1ccc(CN2CCN(c3nc4sccc4n4cccc34)CC2)c(Cl)c1`, the IC50 in experiment [1] is 31.6 µM; in experiment [2], 25.1 µM; in [5], 19.1 µM; in experiment [7], 4.17 µM; in experiment [8] it was 63.1 µM; in experiment [9], 479 µM.
As to `Clc1ccc(CN2CCN(c3nc4sccc4n4cccc34)CC2)cc1Cl`, the IC50 in [1] was 10.2 µM; in experiment [2], 257 µM; in experiment [5] it was 8.71 µM; in [7], 1.17 µM; in experiment [8], 33.9 µM; in experiment [9] it was 191 µM.
Take `c1ccc(CN2CCN(c3nc4cc(-c5ccccc5)sc4n4cccc34)CC2)cc1`: the IC50 was over 100 µM in [1]; over 100 µM in experiment [2]; 468 µM in experiment [5]; 589 µM in experiment [7]; over 100 µM in experiment [8]; 339 µM in experiment [9].
For the compound `Clc1ccc(CN2CCN(c3nc4ccsc4n4cccc34)CC2)cc1Cl`, the concentration for half-maximal inhibition (IC50) in experiment [1] was 1.35 µM; in [2], 44.7 µM; in experiment [5] it was 3.89 µM; in experiment [7], 2.29 µM; in experiment [8] it was 4.27 µM; in experiment [9] it was 17.4 µM.
On to `FC(F)(F)c1ccccc1CCN1CCN(c2nc3ccsc3n3cccc23)CC1`, for which the IC50 in experiment [1] was 0.0724 µM; in experiment [2], 200 µM; in [5], 1.07 µM; in [7], 269 µM; in experiment [8] it was 18.6 µM; in [9], 5.13 µM.
In the case of `FC(F)(F)c1cccc(N2CCN(c3nc4sc(-c5ccccc5)cc4n4cccc34)CC2)c1`, the IC50 was over 100 µM in experiment [1]; over 100 µM in experiment [2]; 23.4 µM in [5]; 1740 µM in experiment [7]; over 100 µM in experiment [8]; over 100 µM in experiment [9].
In the case of `CCOC(=O)CN1CCN(c2nc3ccsc3n3cccc23)CC1`, the half-maximal inhibitory concentration (IC50) in [1] was 0.257 µM; in experiment [2], 100 µM; in experiment [5], 61.7 µM; in experiment [7], 4.07 µM; in experiment [8], 0.676 µM; in [9], 70.8 µM.
`FC(F)(F)c1cccc(N2CCN(c3nc4scc(-c5ccccc5)c4n4cccc34)CC2)c1`: the half-inhibitory concentration (IC50) in experiment [1] is 17.8 µM; in [2], 35.5 µM; in experiment [5], 1.07 µM; in experiment [7], 2.95 µM; in experiment [8], 19.1 µM; in [9], 87.1 µM.
Take `FC(F)(F)c1cccc(N2CCN(c3nc4cc(-c5ccccc5)sc4n4cccc34)CC2)c1`: the IC50 in experiment [1] was over 100 µM; in experiment [2], over 100 µM; in [5], 214 µM; in [7], over 100 µM; in [8], 1380 µM; in [9], over 100 µM.
`c1cc2c(N3CCN(CC4CC4)CC3)nc3ccsc3n2c1`: the half-inhibitory concentration (IC50) in [1] is 0.0617 µM; in experiment [2] it was 2.57 µM; in experiment [5] it was 0.355 µM; in [7], 0.0603 µM; in experiment [8] it was 10.2 µM; in experiment [9] it was 0.933 µM.
On to `Fc1ccc(N2CCN(c3nc4ccsc4n4cccc34)CC2)cc1`, for which the IC50 was 43.7 µM in experiment [1]; 275 µM in experiment [2]; 72.4 µM in [5]; 97.7 µM in [7]; 70.8 µM in [8]; 447 µM in experiment [9].
For `C[N+]1(Cc2ccccc2)CCN(c2nc3ccsc3n3cccc23)CC1`, the 50% inhibitory concentration (IC50) is 7.76 µM in experiment [1]; over 100 µM in experiment [2]; 15.5 µM in experiment [5]; 0.126 µM in experiment [7]; 40.7 µM in experiment [8]; 17.4 µM in [9].
